Source: PubChem BioAssay AID196 (DTP/NCI, 2004)
Several values for one entry are separate records, joined by “and”; a condition that tells them apart may be missing. Equal values may be shown once. Inconclusive results and toxic doses are left out. *1 amine or outer side, *2 acyl side, *3 side chain or, on linkers, in order; H or OH if unused. Where a SMILES comes first, the peptide text is derived from it. Bridges are numbered along the chain shown (N, C = ends). Roman numbers before positions name the chains, in order. [ ]: non-standard residue; d: D form. Actinocin(9to1) = Cc1c2oc3c(C)ccc(C(=O)[*:1])c3nc-2c(C(=O)[*:2])c(N)c1=O; aThr = C[C@H](O)[C@H](N)C(=O)O; NMeV = CN[C@H](C(=O)O)C(C)C; Sar = CNCC(=O)O

Tested on: BDF1 mice, intracerebral B16 melanoma, median survival T/C
Assay: NCI In Vivo Anticancer Drug Screen. Data for tumor model B16 Melanoma (intracerebral) in B6D2F1 (BDF1) mice
Conditions: endpoint: median survival time, higher = longer survival
Protocol: The antitumor activity of compounds was measured in mice bearing transplantable tumors. Survival or tumor size were measured and the results are expressed as the measurement made in the treated group (T) divided by the measurement made in the vehicle treated control group (C). The tumor model used in this assay is B16 Melanoma (intracerebral) in B6D2F1 (BDF1) mice

[1] = dose: 32.0 mg/kg/injection, schedule: Q01DX005 (ip), vehicle: saline with Tween-80
[2] = dose: 64.0 mg/kg/injection, schedule: Q01DX005 (ip), vehicle: saline with Tween-80
[3] = dose: 50.0 mg/kg/injection, schedule: Q01DX005 (ip), vehicle: Klucel (hydroxypropylcellulose) (HPC)
[4] = dose: 100.0 mg/kg/injection, schedule: Q01DX005 (ip), vehicle: Klucel (hydroxypropylcellulose) (HPC)
[5] = dose: 0.25 mg/kg/injection, schedule: Q01DX009 (ip), vehicle: saline
[6] = dose: 0.5 mg/kg/injection, schedule: Q01DX009 (ip), vehicle: saline
[7] = dose: 0.5 mg/kg/injection, schedule: Q01DX009 (ip), vehicle: water
[8] = dose: 1.0 mg/kg/injection, schedule: Q01DX009 (ip), vehicle: saline
[9] = dose: 1.0 mg/kg/injection, schedule: Q01DX009 (ip), vehicle: water
[10] = dose: 2.0 mg/kg/injection, schedule: Q01DX009 (ip), vehicle: saline
[11] = dose: 2.0 mg/kg/injection, schedule: Q01DX009 (ip), vehicle: water
[12] = dose: 4.0 mg/kg/injection, schedule: Q01DX009 (ip), vehicle: saline
[13] = dose: 0.13 mg/kg/injection, schedule: Q01DX009 (ip), vehicle: saline
[14] = dose: 0.25 mg/kg/injection, schedule: Q03HX008 (ip), vehicle: saline
[15] = dose: 0.5 mg/kg/injection, schedule: Q03HX008 (ip), vehicle: saline
[16] = dose: 1.0 mg/kg/injection, schedule: Q03HX008 (ip), vehicle: saline

In the case of `OC(CBr)C(O)C(O)C(O)CBr` (stereo not given), the T/C (dose: 25.0 mg/kg/injection, schedule: Q01DX009 (ip), vehicle: saline) is reported as 92 % of control, the T/C (dose: 50.0 mg/kg/injection, schedule: Q01DX009 (ip), vehicle: saline) is reported as 100 % of control and 108 % of control (2×) and the T/C (dose: 100.0 mg/kg/injection, schedule: Q01DX009 (ip), vehicle: saline) is reported as 116 % of control and 117 % of control and 100 % of control. The T/C (dose: 200.0 mg/kg/injection, schedule: Q01DX009 (ip), vehicle: saline) was 117 % of control and 104 % of control and the T/C (dose: 400.0 mg/kg/injection, schedule: Q01DX009 (ip), vehicle: saline) was 120 % of control.

With `CCCCN(C)N=Nc1ccc([N+](=O)[O-])cc1C(N)=O` the T/C [1] was 121 % of control, the T/C [2] was 116 % of control and the T/C (dose: 256.0 mg/kg/injection, schedule: Q01DX005 (ip), vehicle: saline with Tween-80) was 154 % of control. The T/C (dose: 512.0 mg/kg/injection, schedule: Q01DX005 (ip), vehicle: saline with Tween-80) was 152 % of control.

With `COc1ccc2cc1Oc1ccc(cc1)C[C@H]1c3cc(c(OC)cc3CCN1C)Oc1c(OC)c(OC)cc3c1[C@H](C2)N(C)CC3` the T/C [3] was 100 % of control, the T/C [4] was 98 % of control and 103 % of control and the T/C (dose: 200.0 mg/kg/injection, schedule: Q01DX005 (ip), vehicle: Klucel (hydroxypropylcellulose) (HPC)) was 119 % of control and 101 % of control. For the same molecule, the T/C (dose: 400.0 mg/kg/injection, schedule: Q01DX005 (ip), vehicle: Klucel (hydroxypropylcellulose) (HPC)) was 95 % of control and 113 % of control.

`CCC1=C(c2ccc(OC)cc2)CCC(C(=O)O)C1C` (stereo not given) was tested, and the T/C (dose: 4.0 mg/kg/injection, schedule: Q01DX005 (ip), vehicle: saline with Tween-80) was 95 % of control, the T/C (dose: 4.0 mg/kg/injection, schedule: Q01DX005 (ip), vehicle: suspension in saline) was 103 % of control and the T/C (dose: 8.0 mg/kg/injection, schedule: Q01DX005 (ip), vehicle: saline with Tween-80) was 91 % of control. The T/C (dose: 8.0 mg/kg/injection, schedule: Q01DX005 (ip), vehicle: suspension in saline) was 95 % of control, the T/C (dose: 16.0 mg/kg/injection, schedule: Q01DX005 (ip), vehicle: suspension in saline) was 87 % of control and the T/C [1] was 105 % of control. For the same molecule, the T/C (dose: 32.0 mg/kg/injection, schedule: Q01DX005 (ip), vehicle: suspension in saline) was 95 % of control.

With `COc1cc(C[C@H]2c3cc(OC)c(OC)cc3CCN2C)c(Oc2cc3c(cc2OC)-c2c(OC)c(OC)cc4c2[C@H](C3)N(C)CC4)cc1OC` the T/C [3] was 120 % of control and 94 % of control and the T/C [4] was 108 % of control.

With `COc1cc([C@@H]2c3cc4c(cc3[C@@H](OC3OC5CO[C@@H](c6cccs6)OC5C(O)C3O)[C@H]3COC(=O)[C@H]23)OCO4)cc(OC)c1O` (stereo not given in full) the T/C [5] was 96 % of control, the T/C [6] was 107 % of control and the T/C [7] was 91 % of control. The T/C [8] was 95 % of control and 100 % of control, the T/C [9] was 104 % of control and the T/C [10] was 100 % of control and 108 % of control. For the same molecule, the T/C [11] was 95 % of control and the T/C [12] was 104 % of control.

`CN(C)CC(=O)c1ccc(O)c(O)c1` was tested, and the T/C (dose: 100.0 mg/kg/injection, schedule: Q01DX005 (ip), vehicle: saline) was 96 % of control, the T/C (dose: 200.0 mg/kg/injection, schedule: Q01DX005 (ip), vehicle: saline) was 124 % of control and 97 % of control and the T/C (dose: 400.0 mg/kg/injection, schedule: Q01DX005 (ip), vehicle: saline) was 119 % of control. For the same molecule, the T/C (dose: 800.0 mg/kg/injection, schedule: Q01DX005 (ip), vehicle: saline) was 90 % of control and 108 % of control.

With `CSCS(=O)C[C@H](CO)NC(=O)/C=C/c1c(C)[nH]c(=O)[nH]c1=O` (stereo not given in full) the T/C (dose: 0.06 mg/kg/injection, schedule: Q01DX005 (ip), vehicle: Klucel (hydroxypropylcellulose) (HPC)) was 97 % of control, the T/C (dose: 0.12 mg/kg/injection, schedule: Q01DX005 (ip), vehicle: Klucel (hydroxypropylcellulose) (HPC)) was 98 % of control and the T/C (dose: 0.25 mg/kg/injection, schedule: Q01DX005 (ip), vehicle: Klucel (hydroxypropylcellulose) (HPC)) was 103 % of control. For the same molecule, the T/C (dose: 0.5 mg/kg/injection, schedule: Q01DX005 (ip), vehicle: Klucel (hydroxypropylcellulose) (HPC)) was 98 % of control.

With `Cc1c2oc3c(C)ccc(C(=O)N[C@@H]4C(=O)N[C@H](C(C)C)C(=O)N5CCC[C@H]5C(=O)N(C)CC(=O)N(C)[C@@H](C(C)C)C(=O)O[C@H]4C)c3nc-2c(C(=O)N[C@@H]2C(=O)N[C@H](C(C)C)C(=O)N3CCC[C@H]3C(=O)N(C)CC(=O)N(C)[C@@H](C(C)C)C(=O)O[C@H]2C)c(N)c1=O` (I: [aThr][dV]P[Sar][NMeV] / II: [aThr][dV]P[Sar][NMeV]; ester I:1-I:C, II:1-II:C; linker I:N-II:N via Actinocin(9to1)) the T/C (dose: 0.02 mg/kg/injection, schedule: Q01DX009 (ip), vehicle: water) was 118 % of control and the T/C (dose: 0.05 mg/kg/injection, schedule: Q01DX009 (ip), vehicle: water) was 109 % of control.

`COc1cccc2c1C(=O)c1c(O)c3c(c(O)c1C2=O)C[C@@](O)(C(=O)CO)C[C@@H]3OC1CC(N)C(O)C(C)O1` (stereo not given in full) was tested, and the T/C [13] was 91 % of control, the T/C [5] was 108 % of control and the T/C [14] was 100 % of control. For the same molecule, the T/C [6] was 112 % of control, the T/C [15] was 100 % of control and the T/C [8] was 104 % of control. For the same molecule, the T/C [16] was 107 % of control, the T/C [10] was 108 % of control and the T/C (dose: 2.0 mg/kg/injection, schedule: Q03HX008 (ip), vehicle: saline) was 96 % of control. For the same molecule, the T/C [12] was 116 % of control.

In the case of `COc1cccc2c1C(=O)c1c(O)c3c(c(O)c1C2=O)C[C@@](O)(C(C)=O)C[C@@H]3OC1CC(N)C(O)C(C)O1` (stereo not given in full), the T/C [13] is reported as 104 % of control, the T/C [5] is reported as 116 % of control and 87 % of control and 109 % of control and the T/C [14] is reported as 92 % of control. The T/C [6] was 91 % of control and 104 % of control and 109 % of control, the T/C [7] was 90 % of control and the T/C [15] was 100 % of control. For the same molecule, the T/C [8] was 100 % of control, the T/C [9] was 109 % of control and the T/C [16] was 100 % of control. For the same molecule, the T/C [10] was 100 % of control and the T/C [11] was 100 % of control.

With `Cc1ccc2c(c1)Sc1ccc(N=NN(C)C)cc1N2C` the T/C (dose: 6.25 mg/kg/injection, schedule: Q01DX009 (ip), vehicle: other) was 101 % of control, the T/C (dose: 12.5 mg/kg/injection, schedule: Q01DX009 (ip), vehicle: other) was 116 % of control and the T/C (dose: 25.0 mg/kg/injection, schedule: Q01DX009 (ip), vehicle: other) was 98 % of control. For the same molecule, the T/C (dose: 50.0 mg/kg/injection, schedule: Q01DX009 (ip), vehicle: other) was 116 % of control and the T/C (dose: 100.0 mg/kg/injection, schedule: Q01DX009 (ip), vehicle: other) was 112 % of control.

In the case of `N=C(N)SCc1c2ccccc2c(CSC(=N)N)c2ccccc12`, the T/C (dose: 2.5 mg/kg/injection, schedule: Q01DX005 (ip), vehicle: Klucel (hydroxypropylcellulose) (HPC)) is reported as 107 % of control and 111 % of control, the T/C (dose: 5.0 mg/kg/injection, schedule: Q01DX005 (ip), vehicle: Klucel (hydroxypropylcellulose) (HPC)) is reported as 90 % of control and 92 % of control and the T/C (dose: 10.0 mg/kg/injection, schedule: Q01DX005 (ip), vehicle: Klucel (hydroxypropylcellulose) (HPC)) is reported as 97 % of control and 103 % of control. The T/C (dose: 20.0 mg/kg/injection, schedule: Q01DX005 (ip), vehicle: Klucel (hydroxypropylcellulose) (HPC)) was 93 % of control and 96 % of control.

For `OC(C1CO1)C(O)C1CO1` (stereo not given), the T/C (dose: 0.12 mg/kg/injection, schedule: Q01DX009 (ip), vehicle: saline) was 100 % of control and 101 % of control, the T/C [5] was 122 % of control and 110 % of control and the T/C [6] was 94 % of control and 112 % of control. The T/C [8] was 120 % of control and 103 % of control and the T/C [10] was 123 % of control.

In the case of `CN(C)N=Nc1ccc([N+](=O)[O-])cc1C(N)=O`, the T/C (dose: 16.0 mg/kg/injection, schedule: Q01DX005 (ip), vehicle: saline with Tween-80) is reported as 100 % of control, the T/C [1] is reported as 105 % of control and the T/C [2] is reported as 110 % of control. The T/C (dose: 128.0 mg/kg/injection, schedule: Q01DX005 (ip), vehicle: saline with Tween-80) was 107 % of control.

`COc1cc2c(c3c1c(=O)c1ccccc1n3C)C=CC(C)(C)O2` was tested, and the T/C (dose: 16.0 mg/kg/injection, schedule: Q01DX005 (ip), vehicle: Klucel (hydroxypropylcellulose) (HPC)) was 121 % of control, the T/C (dose: 32.0 mg/kg/injection, schedule: Q01DX005 (ip), vehicle: Klucel (hydroxypropylcellulose) (HPC)) was 104 % of control and the T/C (dose: 64.0 mg/kg/injection, schedule: Q01DX005 (ip), vehicle: Klucel (hydroxypropylcellulose) (HPC)) was 115 % of control.

With `O=C1C(N2CC2)=C(N2CC2)C(=O)C(N2CC2)=C1N1CC1` the T/C (dose: 10.0 micrograms/kg/injection, schedule: Q01DX009 (ip), vehicle: saline) was 120 % of control, the T/C (dose: 20.0 micrograms/kg/injection, schedule: Q01DX009 (ip), vehicle: saline) was 107 % of control and the T/C (dose: 80.0 micrograms/kg/injection, schedule: Q01DX009 (ip), vehicle: saline) was 95 % of control.
